In PubChem BioAssay AID1963427 (Molecular Pharmacology Branch, DTP, NCI, 2024):

Test system: 317291-083-R-J1-PDC complex spheroid growth
Assay: Anticancer human tumor 317291-083-R-J1-PDC patient-derived soft tissue sarcoma cell line growth inhibition [Asc]
Details: for IC50: curve of first compound; for viability, T/C: stronger effect = lower value
How it was run: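 Stromal components (HUVEC and hMSC) are co-assembled with the cancer cells into multicellular spheroids. Drugs are then added singly or paired, at concentrations falling by half-log increments from a clinically achievable maximum, capped at 10 microM without known Cmax.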

[1] = second compound 0.0316 µM, first compound 0.00316 µM
[2] = second compound 0.0316 µM, first compound 0.01 µM
[3] = second compound 0.0316 µM, first compound 0.0316 µM
[4] = second compound 0.0316 µM, first compound 0.1 µM
[5] = second compound 0.0316 µM, first compound 0.316 µM
[6] = second compound 0.0316 µM, first compound 1 µM
[7] = second compound 0.1 µM, first compound 0.00316 µM
[8] = second compound 0.1 µM, first compound 0.01 µM
[9] = second compound 0.1 µM, first compound 0.0316 µM
[10] = second compound 0.1 µM, first compound 0.1 µM
[11] = second compound 0.1 µM, first compound 0.316 µM
[12] = second compound 0.1 µM, first compound 1 µM
[13] = second compound 0.316 µM, first compound 0.00316 µM
[14] = second compound 0.316 µM, first compound 0.01 µM
[15] = second compound 0.316 µM, first compound 0.0316 µM
[16] = second compound 0.316 µM, first compound 0.1 µM
[17] = second compound 0.316 µM, first compound 0.316 µM
[18] = second compound 0.316 µM, first compound 1 µM
[19] = second compound 1 µM, first compound 0.00316 µM
[20] = second compound 1 µM, first compound 0.01 µM
[21] = second compound 1 µM, first compound 0.0316 µM
[22] = second compound 1 µM, first compound 0.1 µM
[23] = second compound 1 µM, first compound 0.316 µM
[24] = second compound 1 µM, first compound 1 µM
[25] = second compound 3.16 µM, first compound 0.00316 µM
[26] = second compound 3.16 µM, first compound 0.01 µM
[27] = second compound 3.16 µM, first compound 0.0316 µM
[28] = second compound 3.16 µM, first compound 0.1 µM
[29] = second compound 3.16 µM, first compound 0.316 µM
[30] = second compound 3.16 µM, first compound 1 µM
[31] = second compound 10 µM, first compound 0.00316 µM
[32] = second compound 10 µM, first compound 0.01 µM
[33] = second compound 10 µM, first compound 0.0316 µM
[34] = second compound 10 µM, first compound 0.1 µM
[35] = second compound 10 µM, first compound 0.316 µM
[36] = second compound 10 µM, first compound 1 µM
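Further: compound exposure lasted seven days after spheroids formed for three days.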
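Wherever viability, T/C is given: 100% = DMSO vehicle control wells.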

CCN1CCN(Cc2ccc(Nc3ncc(F)c(-c4cc(F)c5nc(C)n(C(C)C)c5c4)n3)nc2)CC1 + Cc1c(S(C)(=O)=O)c(-c2cc(F)cc(N3CCN(c4ccc(NS(=O)(=O)c5ccc(NC(CCN6CCC(C(=O)OCCCP(=O)(O)O)CC6)CSc6ccccc6)c(S(=O)(=O)C(F)(F)F)c5)cc4)CC3)c2)c(-c2ccc(Cl)cc2)n1C(C)C
IC50 (second compound 0.0316 µM): 871 nM
IC50 (second compound 0.1 µM): 647 nM
IC50 (second compound 0.316 µM): 402 nM
IC50 (second compound 1 µM): 373 nM
IC50 (second compound 3.16 µM): 242 nM
IC50 (second compound 10 µM): 372 nM
viability, T/C [1]: 97.4%
viability, T/C [2]: 105%
viability, T/C [3]: 87%
viability, T/C [4]: 87.2%
viability, T/C [5]: 70%
viability, T/C [6]: 46.8%
viability, T/C [7]: 113%
viability, T/C [8]: 85.7%
viability, T/C [9]: 90.4%
viability, T/C [10]: 74%
viability, T/C [11]: 63.6%
viability, T/C [12]: 41%
viability, T/C [13]: 94.1%
viability, T/C [14]: 80.5%
viability, T/C [15]: 77.8%
viability, T/C [16]: 62.1%
viability, T/C [17]: 66.6%
viability, T/C [18]: 26.7%
viability, T/C [19]: 87.2%
viability, T/C [20]: 88%
viability, T/C [21]: 67.8%
viability, T/C [22]: 88.2%
viability, T/C [23]: 54%
viability, T/C [24]: 25.9%
viability, T/C [25]: 75.8%
viability, T/C [26]: 80.5%
viability, T/C [27]: 73.5%
viability, T/C [28]: 63.7%
viability, T/C [29]: 46%
viability, T/C [30]: 24.9%
viability, T/C [31]: 82.7%
viability, T/C [32]: 90.5%
viability, T/C [33]: 96.3%
viability, T/C [34]: 78.7%
viability, T/C [35]: 54.6%
viability, T/C [36]: 25.7%

Cn1ncnc1[C@H]1c2n[nH]c(=O)c3cc(F)cc(c23)N[C@@H]1c1ccc(F)cc1 + Cc1c(S(C)(=O)=O)c(-c2cc(F)cc(N3CCN(c4ccc(NS(=O)(=O)c5ccc(NC(CCN6CCC(C(=O)OCCCP(=O)(O)O)CC6)CSc6ccccc6)c(S(=O)(=O)C(F)(F)F)c5)cc4)CC3)c2)c(-c2ccc(Cl)cc2)n1C(C)C
IC50 (second compound 0.0316 µM): > 100 nM
IC50 (second compound 0.1 µM): > 100 nM
IC50 (second compound 0.316 µM): 81 nM
IC50 (second compound 1 µM): 49.7 nM
IC50 (second compound 3.16 µM): 55 nM
IC50 (second compound 10 µM): 32.5 nM
viability, T/C (second compound 0.0316 µM, first compound 0.000316 µM): 93.2%
viability, T/C (second compound 0.0316 µM, first compound 0.001 µM): 91.5%
viability, T/C [1]: 78.4%
viability, T/C [2]: 85.6%
viability, T/C [3]: 67.1%
viability, T/C [4]: 56.6%
viability, T/C (second compound 0.1 µM, first compound 0.000316 µM): 91%
viability, T/C (second compound 0.1 µM, first compound 0.001 µM): 90.8%
viability, T/C [7]: 88.1%
viability, T/C [8]: 77.9%
viability, T/C [9]: 64.7%
viability, T/C [10]: 55.5%
viability, T/C (second compound 0.316 µM, first compound 0.000316 µM): 83.2%
viability, T/C (second compound 0.316 µM, first compound 0.001 µM): 74.1%
viability, T/C [13]: 85.5%
viability, T/C [14]: 66.8%
viability, T/C [15]: 63%
viability, T/C [16]: 47.1%
viability, T/C (second compound 1 µM, first compound 0.000316 µM): 78.4%
viability, T/C (second compound 1 µM, first compound 0.001 µM): 77.3%
viability, T/C [19]: 71.2%
viability, T/C [20]: 55.5%
viability, T/C [21]: 63.2%
viability, T/C [22]: 40.4%
viability, T/C (second compound 3.16 µM, first compound 0.000316 µM): 81.5%
viability, T/C (second compound 3.16 µM, first compound 0.001 µM): 65.9%
viability, T/C [25]: 72.3%
viability, T/C [26]: 60.6%
viability, T/C [27]: 57.5%
viability, T/C [28]: 43.4%
viability, T/C (second compound 10 µM, first compound 0.000316 µM): 99.5%
viability, T/C (second compound 10 µM, first compound 0.001 µM): 92.9%
viability, T/C [31]: 71.5%
viability, T/C [32]: 66.2%
viability, T/C [33]: 48.3%
viability, T/C [34]: 41.9%

O=C(c1ccc(F)c(F)c1Nc1ccc(I)cc1F)N1CC(O)([C@@H]2CCCCN2)C1 + Cc1c(S(C)(=O)=O)c(-c2cc(F)cc(N3CCN(c4ccc(NS(=O)(=O)c5ccc(NC(CCN6CCC(C(=O)OCCCP(=O)(O)O)CC6)CSc6ccccc6)c(S(=O)(=O)C(F)(F)F)c5)cc4)CC3)c2)c(-c2ccc(Cl)cc2)n1C(C)C
IC50 (second compound 0.0316 µM): 419 nM
IC50 (second compound 0.1 µM): 344 nM
IC50 (second compound 0.316 µM): 291 nM
IC50 (second compound 1 µM): 443 nM
IC50 (second compound 3.16 µM): 322 nM
IC50 (second compound 10 µM): 319 nM
viability, T/C [1]: 98.2%
viability, T/C [2]: 96.5%
viability, T/C [3]: 99.2%
viability, T/C [4]: 97.7%
viability, T/C [5]: 60.5%
viability, T/C [6]: 17.5%
viability, T/C [7]: 85.2%
viability, T/C [8]: 81.6%
viability, T/C [9]: 72.2%
viability, T/C [10]: 111%
viability, T/C [11]: 52.9%
viability, T/C [12]: 13.2%
viability, T/C [13]: 85%
viability, T/C [14]: 76.7%
viability, T/C [15]: 75.3%
viability, T/C [16]: 103%
viability, T/C [17]: 47.4%
viability, T/C [18]: 10.6%
viability, T/C [19]: 76.7%
viability, T/C [20]: 85.5%
viability, T/C [21]: 72.6%
viability, T/C [22]: 73%
viability, T/C [23]: 67.3%
viability, T/C [24]: 11.2%
viability, T/C [25]: 74.9%
viability, T/C [26]: 72.7%
viability, T/C [27]: 73%
viability, T/C [28]: 79.4%
viability, T/C [29]: 50.7%
viability, T/C [30]: 9.52%
viability, T/C [31]: 76.9%
viability, T/C [32]: 92%
viability, T/C [33]: 73%
viability, T/C [34]: 97.9%
viability, T/C [35]: 50.2%
viability, T/C [36]: 16.8%
